Biological target: hPAD4 enzyme (Homo sapiens (Human), UniProt Q9UM07)
Experiment: RFMS2 assay (RapidFire mass spectrometry, TSTGGRQGSHH peptide substrate)
Type: biochemical
Details: 35 nM recombinant human PAD4, 500 μM TSTGGRQGSHH peptide, 30 minutes at room temperature; read-out: RFMS 2 IC50
Method: Stock compounds were dissolved and stored in 100% DMSO. Compound solutions were prepared via serial dilution at 3-fold intervals in DMSO with top compound concentration at 20 μM in each assay. 0.25 μl of compound solution was transferred from the compound plate to the assay plate by using an acoustic dispenser.
• Total reaction volume: 25 μl • Assay buffer: […] pH 7.4, 200 mM NaCl, 2 mM CaCl2, 5 mM DTT • 35 nM recombinant human PAD4 • 500 μM TSTGGRQGSHH peptide • 1.2% DMSO • Stop solution: 10% formic acid
Reaction mixtures were incubated at room temperature for 30 minutes. 10 μl each of the reaction mixtures was then mixed with 40 μl of 10% formic acid in a microtiter plate. The plate was frozen at −80° C. before shipping out on dry ice for RapidFire mass spectroscopy analysis.
Thawed samples were loaded onto the Rapid Fire 300 system (Agilent) wherein they were first sipped for 250 ms and then loaded onto a Agilent “C” (C18) cartridge using a mobile phase of water containing 0.09% formic acid/0.01% trifluoroacetic acid for 3000 ms desalting flowing at a rate of 1.5 ml/min. Once the samples were loaded and washed, a mobile phase of acetonitrile containing 0.09% formic acid/0.01% trifluoroacetic acid was used to elute the samples directly onto a Sciex API4000 triple quadrupole mass spectrometer for 3000 ms at a flow rate of 1.25 ml/min.
MRM transitions for substrate and product were monitored in positive ESI mode at m/z=562.3/969.7 and m/z=562.8/541.3 respectively. The dwell time for each transition was set at 100 ms, and the ESI voltage was used at 5500 with a source temperature of 650° C. Extracted ion peaks for each transition were integrated using the Rapid Fire Integrator software.
Compounds having an activity designated as “A” provided an IC50≤10 nM; compounds having an activity designated as “B” provided an IC50 11-100 nM; compounds having an activity designated as “C” provided an IC50 101-500 nM; compounds having an activity designated as “D” provided an IC50 501-1000 nM; compounds having an activity designated as “E” provided an IC50>1000 nM.

Sequence of hPAD4 enzyme (Q9UM07 whole entry): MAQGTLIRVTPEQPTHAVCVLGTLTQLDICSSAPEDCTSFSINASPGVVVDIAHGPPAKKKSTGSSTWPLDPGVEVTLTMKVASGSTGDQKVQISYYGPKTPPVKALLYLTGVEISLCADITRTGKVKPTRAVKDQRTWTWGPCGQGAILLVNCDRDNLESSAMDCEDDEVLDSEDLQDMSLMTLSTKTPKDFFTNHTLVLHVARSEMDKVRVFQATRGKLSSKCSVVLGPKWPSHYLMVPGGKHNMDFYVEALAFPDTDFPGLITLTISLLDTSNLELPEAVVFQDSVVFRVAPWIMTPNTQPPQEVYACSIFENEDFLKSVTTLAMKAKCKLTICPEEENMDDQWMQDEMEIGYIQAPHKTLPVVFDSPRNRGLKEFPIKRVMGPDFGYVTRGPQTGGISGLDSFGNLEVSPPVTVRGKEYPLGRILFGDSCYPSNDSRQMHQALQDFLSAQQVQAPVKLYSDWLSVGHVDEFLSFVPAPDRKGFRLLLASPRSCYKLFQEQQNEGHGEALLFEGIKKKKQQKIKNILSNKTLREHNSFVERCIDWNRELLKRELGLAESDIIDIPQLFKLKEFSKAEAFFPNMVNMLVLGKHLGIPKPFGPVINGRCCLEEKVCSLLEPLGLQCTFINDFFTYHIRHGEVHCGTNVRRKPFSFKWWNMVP

IC50 [nM] | SMILES
101 to 500 | Cc1nncn1CCOc1cccc2cc(-c3nc4cc5c(cc4n3C)CCN(C[C@H](N)CF)C5=O)n(CC3CC3)c12 [Example 182, (S)-6-(2-amino-3-fluoropropyl)-2-(1-(cyclopropylmethyl)-7-(2-(3-methyl-4H-1,2,4-triazol-4-yl)ethoxy)-1H-indol-2-yl)-1-methyl-1,6,7,8-tetrahydro-5H-imidazo[4,5-g]isoquinolin-5-one]
501 to 1000 | C[C@@H](N)CN1CCc2cc3c(cc2C1=O)nc(-c1cc2cccc(C(F)(F)F)c2n1CC1CC1)n3C [Example 36, (R)-6-(2-aminopropyl)-2-(1-(cyclopropylmethyl)-7-(trifluoromethyl)-1H-indol-2-yl)-1-methyl-1,6,7,8-tetrahydro-5H-imidazo[4,5-g]isoquinolin-5-one]
> 1000 | COc1cccc2cc(-c3nc4cc5c(cc4n3C)CCN(C[C@H](N)CF)C5=O)n(C(C)C)c12 [Example 109]
11 to 100 | COc1cccc2cc(-c3nc4cc5c(cc4n3C)CCN(C[C@H](N)CF)C5=O)n(Cc3ccc(C#N)o3)c12 [Example 140, (S)-5-((2-(6-(2-amino-3-fluoropropyl)-1-methyl-5-oxo-5,6,7,8-tetrahydro-1H-imidazo[4,5-g]isoquinolin-2-yl)-7-methoxy-1H-indol-1-yl)methyl)furan-2-carbonitrile]
101 to 500 | Cn1c(-c2cc3cccc(OC[C@H]4CCC(=O)N4)c3n2CC2CC2)nc2cc3c(cc21)CCN(C[C@H](N)CF)C3=O [Example 157, 6-((S)-2-amino-3-fluoropropyl)-2-(1-(cyclopropyl-methyl)-7-(((R)-5-oxopyrrolidin-2-yl)methoxy)-1H-indol-2-yl)-1-methyl-1,6,7,8-tetrahydro-5H-imidazo [4,5-g]isoquinolin-5-one]
> 1000 | Cc1c(-c2nc3cc4c(cc3n2C)CCN(C[C@@H](C)N)C4=O)n(CC2CC2)c2ccccc12 [Example 23, (R)-6-(2-aminopropyl)-2-(1-(cyclopropylmethyl)-3-methyl-1H-indol-2-yl)-1-methyl-1,6,7,8-tetrahydro-5H-imidazo[4,5-g]isoquinolin-5-one]
101 to 500 | COc1cccc2cc(-c3nc4cc5c(cc4n3C)CCN(C[C@H](N)CF)C5=O)n(Cc3ccc(C)o3)c12 [Example 143, (S)-6-(2-amino-3-fluoropropyl)-2-(7-methoxy-1-((5-methylfuran-2-yl)methyl)-1H-indol-2-yl)-1-methyl-1,6,7,8-tetrahydro-5H-imidazo[4,5-g]isoquinolin-5-one]
> 1000 | COCC(C)n1c(-c2nc3cc4c(cc3n2C)CCN(C[C@H](N)CF)C4=O)cc2cccc(OC)c21 (single isomer, unassigned) [Example 123a]
101 to 500 | COc1cccc2cc(-c3nc4cc5c(cc4n3C)CCN(C[C@H](N)CF)C5=O)n(Cc3cc(C#N)no3)c12 [Example 137, (S)-5-((2-(6-(2-amino-3-fluoropropyl)-1-methyl-5-oxo-5,6,7,8-tetrahydro-1H-imidazo[4,5-g]isoquinolin-2-yl)-7-methoxy-1H-indol-1-yl)methyl)isoxazole-3-carbonitrile]
101 to 500 | C[C@@H](CCO)Oc1cccc2cc(-c3nc4cc5c(cc4n3C)CCN(C[C@H](N)CF)C5=O)n(CC3CC3)c12 [Example 191, 6-((S)-2-amino-3-fluoropropyl)-2-(1-(cyclopropylmethyl)-7-(((S)-4-hydroxybutan-2-yl)oxy)-1H-indol-2-yl)-1-methyl-1,6,7,8-tetrahydro-5H-imidazo[4,5-g]isoquinolin-5-one]
501 to 1000 | Cn1c(-c2cc3cccc(OC[C@H]4COCCN4)c3n2CC2CC2)nc2cc3c(cc21)CCN(C[C@H](N)CF)C3=O [Example 188, 6-((S)-2-amino-3-fluoropropyl)-2-(1-(cyclopropylmethyl)-7-(((R)-morpholin-3-yl)methoxy)-1H-indol-2-yl)-1-methyl-1,6,7,8-tetrahydro-5H-imidazo[4,5-g]isoquinolin-5-one]
101 to 500 | Cn1c(-c2cc3cccc(OCc4nnco4)c3n2CC2CC2)nc2cc3c(cc21)CCN(C[C@H](N)CF)C3=O [Example 176, (S)-2-(7-((1,3,4-oxadiazol-2-yl)methoxy)-1-(cyclopropylmethyl)-1H-indol-2-yl)-6-(2-amino-3-fluoropropyl)-1-methyl-1,6,7,8-tetrahydro-5H-imidazo[4,5-g]isoquinolin-5-one]
101 to 500 | COc1ccc2cc(-c3nc4cc5c(cc4n3C)CCN(C[C@H](N)CF)C5=O)n(CC3CC3)c2n1 [Example 62, (S)-6-(2-amino-3-fluoropropyl)-2-(1-(cyclopropylmethyl)-6-methoxy-1H-pyrrolo[2,3-b]pyridin-2-yl)-1-methyl-1,6,7,8-tetrahydro-H-imidazo[4,5-g]isoquinolin-5-one]
> 1000 | COCCn1c(-c2nc3cc4c(cc3n2C)CCN(C[C@@H](C)N)C4=O)cc2ccccc21 [Example 76, (R)-6-(2-aminopropyl)-2-(1-(2-methoxyethyl)-1H-indol-2-yl)-1-methyl-1,6,7,8-tetrahydro-5H-imidazo[4,5-g]isoquinolin-5-one]
101 to 500 | C[C@@H](N)CN1CCc2cc3c(cc2C1=O)nc(-c1cc2ccc(C(F)(F)F)cc2n1CC1CC1)n3C [Example 20, (R)-6-(2-aminopropyl)-2-(1-(cyclopropylmethyl)-6-(trifluoromethyl)-1H-indol-2-yl)-1-methyl-1,6,7,8-tetrahydro-5H-imidazo[4,5-g]isoquinolin-5-one]
501 to 1000 | COc1cccc2cc(-c3nc4cc5c(cc4n3C)CCN(C[C@H](N)CF)C5=O)n(Cc3cn(C)cn3)c12 [Example 114, (S)-6-(2-amino-3-fluoropropyl)-2-(7-methoxy-1-((1-methyl-1H-imidazol-4-yl)methyl)-1H-indol-2-yl)-1-methyl-1,6,7,8-tetrahydro-5H-imidazo[4,5-g]isoquinolin-5-one]
> 1000 | Cc1nnc(Cn2c(-c3nc4cc5c(cc4n3C)CCN(C[C@H](N)CF)C5=O)cc3ccccc32)o1 [Example 99, (S)-6-(2-amino-3-fluoropropyl)-1-methyl-2-(1-((5-methyl-1,3,4-oxadiazol-2-yl)methyl)-1H-indol-2-yl)-1,6,7,8-tetrahydro-5H-imidazo[4,5-g]isoquinolin-5-one]
501 to 1000 | CC(C)Cn1c(-c2nc3cc4c(cc3n2C)CCN(C[C@@H](C)N)C4=O)cc2ccccc21 [Example 74, (R)-6-(2-aminopropyl)-2-(1-isobutyl-1H-indol-2-yl)-1-methyl-1,6,7,8-tetrahydro-5H-imidazo[4,5-g]isoquinolin-5-one]
101 to 500 | COc1cccc2cc(-c3nc4cc5c(cc4n3C)CCN(C[C@@H](C)N)C5=O)n(CCOC3CC3)c12 [Example 91]
101 to 500 | Cc1nnc(COc2cccc3cc(-c4nc5cc6c(cc5n4C)CCN(C[C@H](N)CF)C6=O)n(CC4CC4)c23)o1 [Example 177, (S)-6-(2-amino-3-fluoropropyl)-2-(1-(cyclopropyl-methyl)-7-((5-methyl-1,3,4-oxadiazol-2-yl)methoxy)-1H-indol-2-yl)-1-methyl-1,6,7,8-tetrahydro-5H-imidazo[4,5-g]isoquinolin-5-one]
101 to 500 | COc1cccc2cc(-c3nc4cc5c(cc4n3C)CCN(C[C@H](N)CF)C5=O)n(Cc3cc(Cl)no3)c12 [Example 136, (S)-6-(2-amino-3-fluoropropyl)-2-(1-((3-chloroisoxazol-5-yl)methyl)-7-methoxy-1H-indol-2-yl)-1-methyl-1,6,7,8-tetrahydro-5H-imidazo[4,5-g]isoquinolin-5-one]
> 1000 | COCCn1c(-c2nc3cc4c(cc3n2C)CCN(C[C@H](N)CF)C4=O)cc2cccnc21 [Example 106, (S)-6-(2-amino-3-fluoropropyl)-2-(1-(2-methoxyethyl)-1H-pyrrolo[2,3-b]pyridin-2-yl)-1-methyl-1,6,7,8-tetrahydro-5H-imidazo[4,5-g]isoquinolin-5-one]
101 to 500 | Cn1c(-c2cc3cccc(OCc4cocn4)c3n2CC2CC2)nc2cc3c(cc21)CCN(C[C@H](N)CF)C3=O [Example 189, (S)-6-(2-amino-3-fluoropropyl)-2-(1-(cyclopropylmethyl)-7-(oxazol-4-ylmethoxy)-1H-indol-2-yl)-1-methyl-1,6,7,8-tetrahydro-5H-imidazo[4,5-g]isoquinolin-5-one]
101 to 500 | CCn1c(-c2nc3cc4c(cc3n2C)CCN(C[C@@H](C)N)C4=O)cc2cccc(OC)c21 [Example 90, (R)-6-(2-aminopropyl)-2-(1-ethyl-7-methoxy-1H-indol-2-yl)-1-methyl-1,6,7,8-tetrahydro-5H-imidazo[4,5-g]isoquinolin-5-one]
